Test results as given in ChEMBL document CHEMBL1139987 (Bioorg Med Chem Lett, 2007).

Columns and labels:
[1] = molecular target: Insulin-like growth factor 1 receptor (Homo sapiens, UniProt P08069); test: Inhibition of IGF1R
[2] = molecular target: T1, Polyunsaturated fatty acid lipoxygenase ALOX15 (Homo sapiens, UniProt P16050)
T1 sequence (P16050 whole entry): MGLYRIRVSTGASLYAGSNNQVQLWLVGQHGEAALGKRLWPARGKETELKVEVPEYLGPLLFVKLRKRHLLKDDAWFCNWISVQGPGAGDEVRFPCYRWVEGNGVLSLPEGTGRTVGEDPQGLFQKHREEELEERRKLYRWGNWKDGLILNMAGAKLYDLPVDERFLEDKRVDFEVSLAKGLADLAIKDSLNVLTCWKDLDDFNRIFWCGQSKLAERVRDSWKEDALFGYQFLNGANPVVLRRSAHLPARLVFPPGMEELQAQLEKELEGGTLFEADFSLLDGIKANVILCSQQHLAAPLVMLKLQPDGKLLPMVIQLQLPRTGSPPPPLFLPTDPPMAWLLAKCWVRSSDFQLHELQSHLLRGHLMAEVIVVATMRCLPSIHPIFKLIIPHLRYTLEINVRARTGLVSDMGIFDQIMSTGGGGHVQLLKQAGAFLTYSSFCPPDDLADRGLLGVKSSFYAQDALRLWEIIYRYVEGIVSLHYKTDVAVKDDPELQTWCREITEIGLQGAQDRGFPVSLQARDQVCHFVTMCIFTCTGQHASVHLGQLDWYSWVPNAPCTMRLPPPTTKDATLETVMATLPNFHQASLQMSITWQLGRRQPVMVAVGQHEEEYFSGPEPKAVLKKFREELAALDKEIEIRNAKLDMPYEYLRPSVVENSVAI

[3] = test system: MCF7; test: Inhibition of IGF1 mediated cell growth in MCF7 cells; details: Homo sapiens

Insulin-like growth factor 1 receptor, sequence (P08069 31-736 limits assumed): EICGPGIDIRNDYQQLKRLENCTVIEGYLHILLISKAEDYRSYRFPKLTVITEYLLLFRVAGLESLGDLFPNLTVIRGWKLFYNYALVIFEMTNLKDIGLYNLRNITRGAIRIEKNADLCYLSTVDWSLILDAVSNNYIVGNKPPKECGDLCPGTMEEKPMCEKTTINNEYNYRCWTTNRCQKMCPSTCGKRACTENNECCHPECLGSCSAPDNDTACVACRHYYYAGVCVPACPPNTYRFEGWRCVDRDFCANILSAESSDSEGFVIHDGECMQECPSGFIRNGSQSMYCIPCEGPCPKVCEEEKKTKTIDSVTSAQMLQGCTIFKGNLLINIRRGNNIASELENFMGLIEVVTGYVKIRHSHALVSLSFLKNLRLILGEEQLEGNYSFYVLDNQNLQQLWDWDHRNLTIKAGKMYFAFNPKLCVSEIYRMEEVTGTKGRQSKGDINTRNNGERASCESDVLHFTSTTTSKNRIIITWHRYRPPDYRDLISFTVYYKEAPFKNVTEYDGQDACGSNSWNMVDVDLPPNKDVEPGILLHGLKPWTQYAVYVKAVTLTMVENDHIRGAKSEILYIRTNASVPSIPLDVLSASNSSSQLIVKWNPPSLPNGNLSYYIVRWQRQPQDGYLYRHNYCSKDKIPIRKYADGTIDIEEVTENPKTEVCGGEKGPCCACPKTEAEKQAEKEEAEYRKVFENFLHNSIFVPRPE
Insulin-like growth factor 1 receptor, sequence (P08069 741-1367 limits assumed): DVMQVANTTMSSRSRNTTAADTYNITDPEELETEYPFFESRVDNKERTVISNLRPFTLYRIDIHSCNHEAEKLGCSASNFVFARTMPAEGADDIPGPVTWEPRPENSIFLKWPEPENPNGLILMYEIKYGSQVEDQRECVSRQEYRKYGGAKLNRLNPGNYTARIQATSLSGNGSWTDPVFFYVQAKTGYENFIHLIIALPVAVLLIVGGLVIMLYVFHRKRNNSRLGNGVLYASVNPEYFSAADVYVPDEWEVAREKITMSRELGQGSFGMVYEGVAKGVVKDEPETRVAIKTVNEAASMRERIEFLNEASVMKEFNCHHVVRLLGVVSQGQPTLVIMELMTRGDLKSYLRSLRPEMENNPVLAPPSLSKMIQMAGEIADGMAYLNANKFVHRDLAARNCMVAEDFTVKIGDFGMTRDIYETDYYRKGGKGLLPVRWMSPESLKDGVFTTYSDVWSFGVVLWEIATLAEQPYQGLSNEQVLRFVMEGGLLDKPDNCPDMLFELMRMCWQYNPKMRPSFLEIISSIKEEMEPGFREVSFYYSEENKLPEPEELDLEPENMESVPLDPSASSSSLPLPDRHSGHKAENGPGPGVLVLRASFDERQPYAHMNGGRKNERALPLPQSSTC

Compound | IC50 [1] [µM] | IC50 [2] [µM] | IC50 [3] [µM]
Oc1ccc(CCCCc2ccc(O)c(O)c2)cc1 | 1 | 9.4 | 36.2
Oc1ccc(CCCCc2ccc(Cl)c(Cl)c2)cc1O | 1 | – | 21.5
CC(Cc1ccc(O)c(O)c1)C(C)Cc1ccc(O)c(O)c1 (stereo not drawn) [NORDIHYDROGUAIARETIC ACID] | – | – | 24.6
Oc1ccc(CCCCc2ccc(O)c(O)c2)cc1O | 0.6 | 3.9 | 25.4
Cc1ccc(CCCCc2ccc(O)c(O)c2)cc1 | 0.8 | – | 15.1
Oc1ccc(CCCCc2ccccc2)cc1O | – | 7.3 | 11.2
Oc1ccc(CCCCc2ccc(Cl)cc2)cc1O | 0.8 | – | 13.4
Oc1cc2c(cc1O)C(c1ccccc1)CCC2 (stereo not drawn) | 1 | – | 12.3
COc1ccc(CCCCc2ccc(O)c(O)c2)cc1 | – | – | 15.7
